Patent US20210154281A1, “CELL-BASED CANCER VACCINES AND CANCER THERAPIES” (Massachusetts Institute of Technology, priority 2019, published 2021)
Like-named read-outs stand apart in the source and are kept apart here.

Key:
[1] = Cell viability (survival) assay with CellTiter-Glo, 48 hours; format: cell-based, mouse; conditions: mouse, B16F10 melanoma tumor cells, 48 hours, normalized to DMSO-treated control cells
Protocol: (§1) For assays of survival, 15,000 cells were plated per well in a 96-well plate in 100 μl media with 5 replicates per condition. Wells along the four edges of the plate were not used. Following cell attachment, the indicated drugs were added in an equal volume of media, and incubated for an additional 48 hours. The media was then removed and replaced with 100 ul of fresh media at room temperature. Following a 30 minute incubation at room temperature, 50 μl of CellTiter-Glo reagent was added, followed by 2 minutes of gentle mixing. The plate was incubated at room temperature for an additional 10 minutes. 100 μl of supernatant was transferred to a 96-well white opaque plate and luminescence was read on a Tecan microplate reader. Values were normalized to those of DMSO-treated control cells.

B16-Ova cells [2] = assay: ATP levels in cell-free culture media by CellTiter-Glo; format: cell-based, mouse; conditions: for ATP (nM) MEAN: culture media 24-48 hours after treatment
Protocol: For measurement of ATP levels, cell-free culture media obtained as above was analyzed by CellTiter-Glo according to the manufacturer's protocol. Values were converted to ATP concentrations using a standard curve generated using pure ATP.

[3] = test system: CT26 mouse colon cancer cells; conditions: previously reported; cited from earlier work
MC-38-Ova cells = assay: In vitro cross presentation assay: drug-treated MC-38-Ova cells, BMDC and OT-1 CD8+ T-cells; format: cell-based, mouse
Protocol: (§2) B16-Ova or MC-38 Ova cells were treated with various doses of chemotherapeutic drugs for 24 h followed by extensive washing in IMDM (10% FBS, P/S). Subsequently 1×10^6 treated cells were co-cultured with 2.5×10^5 BMDC per well of a 24-well plate for each condition tested. After 24 hours of co-culture, supernatants were removed from each well and the BMDC washed 2-3 times in T-cell media (RPMI containing 10% FBS, 20 mM HEPES, 1 mM sodium pyruvate, 55 uM b-mercaptoethanol, 2 mM L-glutamine, nonessential amino acids and antibiotics). CD8+OT-I T-cells isolated from spleens of OT-I mice were then co-cultured with the BMDC at 125,000 T-cells per well to achieve an effector to target ratio of 0.5. Where indicated, BMDC and/or T-cells were also exposed to chemotherapy drugs. After a 12-15 h incubation, IFN-g producing T-cells were identified and quantified by intra-cellular cytokine staining and flow cytometry using a BD LSR II or Fortessa flow cytometer. Cells were first gated for CD3 expression, then re-gated for CD8 and IFNg expression.

B16-Ova cells [4] = assay: Calreticulin surface exposure by flow cytometry; conditions: for CALR (%): 24 hours after treatment, representative experiment
B16-Ova cells [5] = assay: In vitro cross presentation assay: drug-treated B16-Ova cells, BMDC and OT-1 CD8+ T-cells, IFN-γ+ T-cells by flow cytometry; format: cell-based, mouse
Protocol: as §2
An experimental system was developed to assess dendritic cell-mediated T-cell priming using the B16-Ova cells, in combination with primary bone-marrow derived dendritic cells (BMDC) and OT-I CD8+ T-cells expressing a TCR transgene that specifically recognizes the Ova-derived peptide […] (SEQ ID NO:1) in the context of H2-Kb (OT-1) (Clarke, et al., Immunol Cell Biol., 78(2):110-7 (2000); Hogquist, et al., Cell, 76(1):17-27 (1994)). […] The treated B16-Ova cells/BMDC co-culture was then incubated with purified CD8+ T-cells obtained from the spleens of OT-1 mice, and the appearance of IFNg+CD8 T-cells was measured 12-15 hours later by intracellular staining and subsequent quantification using flow cytometry.

B16-Ova cells [6] = assay: HMGB1 in cell culture media by ELISA; format: cell-based, mouse; conditions: for HMGB1 (ng/ml) MEAN: culture media 24-48 hours after treatment
Protocol: Cell-free cell culture media was then analyzed by ELISA for HMGB1 according to the manufacturer's protocol.

[7] = test system: B16F10 melanoma tumor cell line; assay: Cell death by AnnexinV/DAPI staining 48 hours after drug treatment; format: cell-based, mouse; conditions: for cell death by DAPI and Annexin V staining: at the concentrations used
Protocol: For assessment of cell death, floating and attached cells were harvested after 48 hours of treatment with the indicated chemotherapeutic drugs. Attached cells were detached using 5 mM EDTA in PBS. The recovered cells were centrifuged at 250×g for 5 minutes, washed once in PBS containing 0.9 mM Ca2+ and 0.5 mM Mg2+ and then stained with AnnV-FITC for 15 minutes in Annexin binding buffer at room temperature according to the manufacturer's protocol (Biolegend). Cells were co-stained with DAPI at a final concentration of 1 μg/ml for 2 minutes in Annexin binding buffer, brought to a final volume of 500 ul using PBS containing 0.9 mM Ca2^+ and 0.5 mM Mg2^+ and analyzed by flow cytometry.
To identify how DNA-damaging chemotherapy could be optimally used to enhance anti-tumor immune function, cytotoxicity assays were performed using the B16F10 melanoma tumor cell line expressing ovalbumin (B16-Ova). Cells were treated with clinically used chemotherapeutic agents followed by assaying for cell death by DAPI and Annexin V staining 48 hours later.

p38MAPK = assay: Western blotting of cell lysates with anti-phospho-p38 antibody; format: cell-based, mouse; conditions: B16-Ova cells
[8] = test system: B16F10 melanoma tumor cell line; assay: Cell viability (survival) assay with CellTiter-Glo, 48 hours; format: cell-based, mouse; conditions: at the concentrations used
Protocol: as §1

COc1cccc2c1C(=O)c1c(O)c3c(c(O)c1C2=O)C[C@@](O)(C(=O)CO)C[C@@H]3O[C@H]1C[C@H](N)[C@H](O)[C@H](C)O1 [Dox, doxorubicin]
viability at 48 h, 10 µM ([1]; 10 uM): 0.505%
viability at 48 h, 50 µM ([1]; 50 uM): 0.126%
ATP (nM) MEAN (B16-Ova cells [2]; 10 uM): 1.11 nM
ATP (nM) MEAN (B16-Ova cells [2]; 50 uM): 0.83 nM
ATP release (B16-Ova cells [2]; after 24 hours of treatment): Substantial ATP release
immunogenic cell death / calreticulin exposure [3]: induce calreticulin exposure
% CD3+CD8+IFN-γ+ T-cells MEAN (MC-38-Ova cells; MC-38-Ova cells treated with 10 uM for 24 h): 1.217%
% CD3+CD8+IFN-γ+ T-cells MEAN (MC-38-Ova cells; MC-38-Ova cells treated with 50 uM for 24 h): 0.08667%
CALR (%) (B16-Ova cells [4]; 10 uM): 4.97%
CALR (%) (B16-Ova cells [4]; 50 uM): 2.82%
level of externalized calreticulin (B16-Ova cells [4]; 24 hours of drug exposure): lowest levels
activating cells (B16-Ova cells [5]; 0.5 μM and 1.0 μM): effective at activating cells
activating cells (B16-Ova cells [5]; 10 μM and 50 μM): not effective at activating cells
inducing DC-mediated IFN-γ in T-cells (B16-Ova cells [5]; 10 and 50 uM (Table 3, Table 4)): ineffective
% CD3+CD8+IFN-γ+ T-cells MEAN (B16-Ova cells [5]; B16-Ova cells treated with 10 uM for 24 h): 0.13%
% CD3+CD8+IFN-γ+ T-cells MEAN (B16-Ova cells [5]; B16-Ova cells treated with 50 uM for 24 h): 0.28%
IFN-gamma production in CD8+ T-cells (B16-Ova cells [5]; specific doses): promote IFN-gamma production in CD8+ T-cells
HMGB1 (ng/ml) MEAN (B16-Ova cells [6]; 10 uM): 77.83 ng/mL
HMGB1 (ng/ml) MEAN (B16-Ova cells [6]; 50 uM): 57.75 ng/mL
HMGB1 release into the media (B16-Ova cells [6]; 24-48 hours post-treatment window): high levels of HMGB1 release
cell death ([7]; 10 μM and 50 μM): high levels of cell death
cell death by DAPI and Annexin V staining ([7]; 48 hours): caused varying extents of apoptotic and non-apoptotic cell death
cytotoxicity at 10 µM ([7]; Mus musculus, B16-F10, 10 uM, 48 hours, read-out: AnnV+DAPI+ (%) Mean): 48%
cytotoxicity at 10 µM ([7]; Mus musculus, B16-F10, 10 uM, 48 hours, read-out: AnnV+DAPI− (%) Mean): 31.6%
cytotoxicity at 10 µM ([7]; Mus musculus, B16-F10, 10 uM, 48 hours, read-out: AnnV−DAPI+ (%) Mean): 0.04%
viability at 10 µM ([7]; Mus musculus, B16-F10, 10 uM, 48 hours, read-out: AnnV−DAPI− (%) Mean): 20.4%
cytotoxicity at 50 µM ([7]; Mus musculus, B16-F10, 50 uM, 48 hours, read-out: AnnV+DAPI+ (%) Mean): 52.1%
cytotoxicity at 50 µM ([7]; Mus musculus, B16-F10, 50 uM, 48 hours, read-out: AnnV+DAPI− (%) Mean): 27.1%
cytotoxicity at 50 µM ([7]; Mus musculus, B16-F10, 50 uM, 48 hours, read-out: AnnV−DAPI+ (%) Mean): 0.04%
viability at 50 µM ([7]; Mus musculus, B16-F10, 50 uM, 48 hours, read-out: AnnV−DAPI− (%) Mean): 20.8%
p38MAPK activation (p38MAPK): p38MAPK activation

CC(=O)O[C@H]1C(=O)[C@@]2(C)[C@H]([C@H](OC(=O)c3ccccc3)[C@]3(O)C[C@H](OC(=O)[C@H](O)[C@@H](NC(=O)c4ccccc4)c4ccccc4)C(C)=C1C3(C)C)[C@]1(OC(C)=O)CO[C@@H]1C[C@@H]2O [Pac, paclitaxel]
growth arrest [8]: caused some degree of growth arrest
viability at 48 h, 0.2 µM ([1]; 0.2 uM): 69.8%
viability at 48 h, 1 µM ([1]; 1 uM): 74%
cell death by DAPI and Annexin V staining ([7]; 48 hours): did not induce substantial amounts of cell death
cytotoxicity at 0.2 µM ([7]; Mus musculus, B16-F10, 200 nM, 48 hours, read-out: AnnV+DAPI+ (%) Mean): 4.79%
cytotoxicity at 0.2 µM ([7]; Mus musculus, B16-F10, 200 nM, 48 hours, read-out: AnnV+DAPI− (%) Mean): 7.2%
cytotoxicity at 0.2 µM ([7]; Mus musculus, B16-F10, 200 nM, 48 hours, read-out: AnnV−DAPI+ (%) Mean): 2.18%
viability at 0.2 µM ([7]; Mus musculus, B16-F10, 200 nM, 48 hours, read-out: AnnV−DAPI− (%) Mean): 85.8%
cytotoxicity at 1 µM ([7]; Mus musculus, B16-F10, 1 uM, 48 hours, read-out: AnnV+DAPI+ (%) Mean): 2.98%
cytotoxicity at 1 µM ([7]; Mus musculus, B16-F10, 1 uM, 48 hours, read-out: AnnV+DAPI− (%) Mean): 3.03%
cytotoxicity at 1 µM ([7]; Mus musculus, B16-F10, 1 uM, 48 hours, read-out: AnnV−DAPI+ (%) Mean): 2.79%
viability at 1 µM ([7]; Mus musculus, B16-F10, 1 uM, 48 hours, read-out: AnnV−DAPI− (%) Mean): 91.2%
